Source: US9714249B2 (Novartis AG, priority 2013, dated 2017)

Legend:
Details in all cases: acetyl-histone H4 peptide
[1] = molecular target: BRD3 (His-Brd3(20-477)) (Homo sapiens (Human), UniProt Q15059); assay: TR-FRET in-vitro binding assay for BRD3
Protocol: All assays were performed in 384 well microtiter plates. Each assay plate contained 8-point serial dilutions for 40 test compounds, plus 16 high- and 16 low controls. Liquid handling and incubation steps were done on an Innovadyne Nanodrop Express equipped with a robotic arm (Thermo CatX, Perkin Elmer/Caliper Twister II) and an incubator (Liconic STX40, Thermo Cytomat 2C450). The assay plates were prepared by addition of 50 nl per well of compound solution in 90% DMSO HummingBird nanodispenser (Zinsser Analytic). The assay was started by stepwise addition of 4.5 μl per well of bromo domain protein (50 mM HEPES, pH 7.5, 0.005% Tween20, 0.1% BSA, 50 mM NaCl, 45 nM His-Brd2(60-472) or 45 nM His-Brd3(20-477) or 45 nM His-Brd4(44-477) all proteins produced in-house) and 4.5 μl per well of peptide solution (50 mM HEPES, pH 7.5, 0.005% Tween20, 0.1% BSA, 50 mM NaCl, 60 nM acetyl-histone H4 (AcK 5, 8, 12, 16) (Biosyntan GmbH)). Reactions were incubated at 30° C. for 35 minutes. Subsequently 4.5 μl per well detection mix (50 mM HEPES, pH 7.5, 0.005% Tween20, 0.1% BSA, 50 mM NaCl, 3 nM Eu-labeled anti-His6 antibody, 21 nM streptavidin-allophycocyanin) were added. After 35 minutes incubation at 30° C., plates were measured in a Perkin Elmer EnVision multilabel reader. Concentrations causing 50% inhibition (1050) values were determined from percent inhibition values at different compound concentrations by non-linear regression analysis.
(§1) Test compounds were dissolved in DMSO (10 mM) and transferred into 1.4 mL flat bottom or V-shaped Matrix tubes carrying a unique 2D matrix. The stock solutions were stored at […] if not used immediately. For the test procedure the vials were defrosted and identified by a scanner whereby a working sheet was generated that guided the subsequent working steps. Compound dilutions were made in 96 well plates. This format enabled the assay of maximally 40 individual test compounds at 8 concentrations (single points) including 4 reference compounds, if desired (known BET inhibitors from the prior art, for this and other assays of the type disclosed herein). The dilution protocol included the production of “pre-dilution plates”, “master plates” and “assay plates”.
Pre-dilution plates: 96 polypropylene well plates were used as pre-dilution plates. A total of 4 pre-dilution plates were prepared including 10 test compounds each on the plate positions A1-A10, one standard compound at A11 and one DMSO control at A12. All dilution steps were done on a HamiltonSTAR robot. Master plates: 30 μL of individual compound dilutions including standard compound and controls of the 4 “pre-dilution plates” were transferred into a 384 “master plate” including the following concentrations 10000, 3003, 1000, 300, 100, 30, 10 and 3 μM, respectively in 90% of DMSO. Assay plates: Identical “assay plates” were then prepared by pipetting 50 nL each of compound dilutions of the “master plates” into 384-well “assay plates” by means of a HummingBird 384-channel dispenser. These plates were used directly for the assay which was performed in a total volume of 13.55 μL. This led to a final compound concentration of 37, 11, 3.7, 1.1, 0.37, 0.11, 0.037 and 0.011 μM and a final DMSO concentration of 0.37% in the assay. Cell Growth Inhibition Assay

[2] = molecular target: BRD4 (His-Brd4(44-477)) (Homo sapiens (Human), UniProt O60885); assay: TR-FRET in-vitro binding assay for BRD4
Protocol: All assays were performed in 384 well microtiter plates. Each assay plate contained 8-point serial dilutions for 40 test compounds, plus 16 high- and 16 low controls. Liquid handling and incubation steps were done on an Innovadyne Nanodrop Express equipped with a robotic arm (Thermo CatX, Perkin Elmer/Caliper Twister II) and an incubator (Liconic STX40, Thermo Cytomat 2C450). The assay plates were prepared by addition of 50 nl per well of compound solution in 90% DMSO HummingBird nanodispenser (Zinsser Analytic). […] Reactions were incubated at 30° C. for 35 minutes. […] After 35 minutes incubation at 30° C., plates were measured in a Perkin Elmer EnVision multilabel reader.
as §1
(§2) Pre-dilution plates: 96 polypropylene well plates were used as pre-dilution plates. A total of 4 pre-dilution plates were prepared including 10 test compounds each on the plate positions A1-A10, one standard compound at A11 and one DMSO control at A12. All dilution steps were done on a HamiltonSTAR robot. […] These plates were used directly for the assay which was performed in a total volume of 13.55 μL. […] Cell Growth Inhibition Assay

[3] = molecular target: CREBBP bromodomain (His-CREBBP (1081-1197)) (Homo sapiens (Human), UniProt Q92793); assay: AlphaScreen in-vitro binding assay for CREBBP
Sequence of CREBBP bromodomain (His-CREBBP (1081-1197)) (Q92793 1081-1197): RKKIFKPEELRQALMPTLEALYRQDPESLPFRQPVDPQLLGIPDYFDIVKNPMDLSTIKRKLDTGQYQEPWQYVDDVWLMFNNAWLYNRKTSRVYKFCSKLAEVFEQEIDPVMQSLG
Protocol: In order to assess bromodomain selectivity, we set up a binding assay using the bromodomain encoded by the CREBBP gene. […] Reactions were incubated at 30° C. for 35 minutes. Subsequently 4.5 μl per well detection mix (50 mM HEPES, pH 7.5, 0.005% Tween20, 0.02% BSA, 150 mM NaCl, 45 μg/ml Ni-chelate acceptor beads, 45 μg/ml streptavidin-donor beads) (Perkin Elmer)) were added. After 60 minutes incubation at room temperature, plates were measured in a Perkin Elmer EnVision multilabel reader. IC50 values were determined from percent inhibition values at different compound concentrations by non-linear regression analysis.
as §1, §2

Sequence of BRD3 (His-Brd3(20-477)) (Q15059 20-477, species assumed): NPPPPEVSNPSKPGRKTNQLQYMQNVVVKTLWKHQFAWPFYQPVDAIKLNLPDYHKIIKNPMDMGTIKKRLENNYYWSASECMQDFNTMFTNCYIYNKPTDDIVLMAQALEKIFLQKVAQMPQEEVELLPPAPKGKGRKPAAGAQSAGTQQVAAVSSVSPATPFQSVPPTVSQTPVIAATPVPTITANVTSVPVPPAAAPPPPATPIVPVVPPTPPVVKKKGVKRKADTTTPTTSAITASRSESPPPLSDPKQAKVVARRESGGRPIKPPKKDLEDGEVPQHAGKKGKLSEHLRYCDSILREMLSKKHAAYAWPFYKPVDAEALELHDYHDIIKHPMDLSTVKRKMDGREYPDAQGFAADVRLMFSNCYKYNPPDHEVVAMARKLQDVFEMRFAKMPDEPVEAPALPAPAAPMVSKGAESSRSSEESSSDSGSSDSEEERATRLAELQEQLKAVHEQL

Row | SMILES | IC50 [1] [nM] | IC50 [2] [nM] | IC50 [3] [nM]
1 | Cc1cc(N2C(=O)c3c(C4CC4)nn(-c4ccnn4C)c3[C@H]2c2ccc(Cl)cc2)cn(C)c1=O [Example 22, (R)-6-(4-chlorophenyl)-3-cyclopropyl-5-(1,5-dimethyl-6-oxo-1,6-dihydropyridin-3-yl)-1-(1-methyl-1H-pyrazol-5-yl)-5,6-dihydropyrrolo[3,4-c]pyrazol-4(1H)-one] | 89 | 140 | 2900
2 | Cc1[nH]nc2c1C(=O)N(c1cc(Cl)c(=O)n(C)c1)[C@@H]2c1ccc(Cl)cc1 [Example 28, (R)-5-(5-chloro-1-methyl-6-oxo-1,6-dihydropyridin-3-yl)-6-(4-chlorophenyl)-3-methyl-5,6-dihydropyrrolo[3,4-c]pyrazol-4(2H)-one] | 69 | 160 | 2200
3 | COc1ncccc1-c1nn(C)c2c1C(=O)N(c1cc(C)c(=O)n(C)c1)[C@@H]2c1ccc(Cl)cc1 [Example 16, (R)-6-(4-chlorophenyl)-5-(1,5-dimethyl-6-oxo-1,6-dihydropyridin-3-yl)-3-(2-methoxypyridin-3-yl)-1-methyl-5,6-dihydropyrrolo[3,4-c]pyrazol-4(1H)-one] | 52 | 56 | 545
4 | COc1ncccc1-n1nc(C)c2c1[C@@H](c1ccc(Cl)cc1)N(c1cc(C)c(=O)n(C)c1)C2=O [Example 25, (R)-6-(4-chlorophenyl)-5-(1,5-dimethyl-6-oxo-1,6-dihydropyridin-3-yl)-1-(2-methoxypyridin-3-yl)-3-methyl-5,6-dihydropyrrolo[3,4-c]pyrazol-4(1H)-one] | 64 | 150 | 2000
5 | CCOc1ncccc1-n1nc2c(c1C)C(=O)N(c1cc(C)c(=O)n(C)c1)C2c1ccc(Cl)cc1 (stereo not shown) [Example 18b, 6-(4-chlorophenyl)-5-(1,5-dimethyl-6-oxo-1,6-dihydropyridin-3-yl)-2-(2-ethoxypyridin-3-yl)-3-methyl-5,6-dihydropyrrolo[3,4-c]pyrazol-4(2H)-one] | 39 | 41 | 1300
6 | Cc1cc(N2C(=O)c3c(C4CC4)n[nH]c3[C@H]2c2ccc(Cl)cc2)cn(C)c1=O [Example 24, (R)-6-(4-chlorophenyl)-3-cyclopropyl-5-(1,5-dimethyl-6-oxo-1,6-dihydropyridin-3-yl)-5,6-dihydropyrrolo[3,4-c]pyrazol-4(1H)-one] | 47 | 73 | 1700
7 | COc1ccc(-n2nc(C)c3c2C(c2ccc(Cl)cc2)N(c2cc(C)c(=O)n(C)c2)C3=O)cn1 (stereo not shown) [Example 20b, 6-(4-chlorophenyl)-5-(1,5-dimethyl-6-oxo-1,6-dihydropyridin-3-yl)-1-(6-methoxypyridin-3-yl)-3-methyl-5,6-dihydropyrrolo[3,4-c]pyrazol-4(1H)-one] | 48 | 56 | –
8 | COc1ncccc1-n1nc2c(c1C)C(=O)N(c1cc(C)c(=O)n(C)c1)[C@@H]2c1ccc(Cl)cc1 [Example 26, (R)-6-(4-chlorophenyl)-5-(1,5-dimethyl-6-oxo-1,6-dihydropyridin-3-yl)-2-(2-methoxypyridin-3-yl)-3-methyl-5,6-dihydropyrrolo[3,4-c]pyrazol-4(2H)-one] | 52 | 91 | 1000
9 | Cc1nn(C2CC2)c2c1C(=O)N(c1cc(C)c(=O)n(C)c1)C2c1ccc(Cl)cc1 (stereo not shown) [Example 11, 6-(4-chlorophenyl)-1-cyclopropyl-5-(1,5-dimethyl-6-oxo-1,6-dihydropyridin-3-yl)-3-methyl-5,6-dihydropyrrolo[3,4-c]pyrazol-4(1H)-one] | 34 | 40 | 1900
10 | COc1ncc(-n2nc3c(c2C)C(=O)N(c2cc(C)c(=O)n(C)c2)C3c2ccc(Cl)cc2)cn1 (stereo not shown) [Example 21b, 6-(4-chlorophenyl)-5-(1,5-dimethyl-6-oxo-1,6-dihydropyridin-3-yl)-2-(2-methoxypyrimidin-5-yl)-3-methyl-5,6-dihydropyrrolo[3,4-c]pyrazol-4(2H)-one] | 94 | 110 | 4700
11 | Cc1nn(C)c2c1C(=O)N(c1cc(C)c(=O)n(C)c1)C2c1ccc(Cl)cc1 (stereo not shown) [Example 10, 6-(4-chlorophenyl)-5-(1,5-dimethyl-6-oxo-1,6-dihydropyridin-3-yl)-1,3-dimethyl-5,6-dihydropyrrolo[3,4-c]pyrazol-4(1H)-one] | 62 | 89 | 3000
12 | Cc1cc(N2C(=O)c3c(C4CC4)nn(CCO)c3C2c2ccc(Cl)cc2)cn(C)c1=O (stereo not shown) [Example 3, 6-(4-chlorophenyl)-3-cyclopropyl-5-(1,5-dimethyl-6-oxo-1,6-dihydropyridin-3-yl)-1-(2-hydroxyethyl)-5,6-dihydropyrrolo[3,4-c]pyrazol-4(1H)-one] | 34 | 43 | –
13 | COc1ncc(-n2nc3c(c2C)C(=O)N(c2cc(Cl)c(=O)n(C)c2)C3c2ccc(Cl)cc2)cn1 (stereo not shown) [Example 8b, 5-(5-chloro-1-methyl-6-oxo-1,6-dihydropyridin-3-yl)-6-(4-chlorophenyl)-2-(2-methoxypyrimidin-5-yl)-3-methyl-5,6-dihydropyrrolo[3,4-c]pyrazol-4(2H)-one] | 140 | 210 | 5400
14 | COc1ncc(-n2nc(C)c3c2C(c2ccc(Cl)cc2)N(c2cc(C)c(=O)n(C)c2)C3=O)cn1 (stereo not shown) [Example 21a, 6-(4-chlorophenyl)-5-(1,5-dimethyl-6-oxo-1,6-dihydropyridin-3-yl)-1-(2-methoxypyrimidin-5-yl)-3-methyl-5,6-dihydropyrrolo[3,4-c]pyrazol-4(1H)-one] | 52 | 71 | > 11100
15 | COc1ncccc1-c1nn(C)c2c1C(=O)N(c1cc(C)c(=O)n(C)c1)C2c1ccc(Cl)cc1 (stereo not shown) [Example 15, 6-(4-chlorophenyl)-5-(1,5-dimethyl-6-oxo-1,6-dihydropyridin-3-yl)-3-(2-methoxypyridin-3-yl)-1-methyl-5,6-dihydropyrrolo[3,4-c]pyrazol-4(1H)-one] | 65.5 | 62.5 | 1000
16 | CNC1=C(C(=N)C2CC2)C(=O)N(c2cc(C)c(=O)n(C)c2)[C@@H]1c1ccc(Cl)cc1 [Example 2] | 20 | 16 | 1200
17 | COc1ncccc1-n1nc2c(c1C)C(=O)N(c1cc(C)c(=O)n(C)c1)C2c1ccc(Cl)cc1 (stereo not shown) [Example 17b, 6-(4-chlorophenyl)-5-(1,5-dimethyl-6-oxo-1,6-dihydropyridin-3-yl)-2-(2-methoxypyridin-3-yl)-3-methyl-5,6-dihydropyrrolo[3,4-c]pyrazol-4(2H)-one] | 46 | 56 | 1300
